According to ChEMBL document CHEMBL3399978, “Synthesis and optimization of picolinamide derivatives as a novel class of 11β-hydroxysteroid dehydrogenase type 1 (11β-HSD1) inhibitors” (Bioorg Med Chem Lett, 2015):
Calls of active or inactive are those of the source. The calls are words filed in the database; no cut-off is given here.

Experiments:
[1] = Metabolic stability in mouse liver microsomes assessed as compound remaining after 30 mins; format: ADME; conditions: read-out: Stability
[2] = Oral bioavailability in mouse at 20 mg/kg; format: ADME, organism-based; conditions: in vivo
[3] = system: Mus musculus; assay: Ex vivo inhibition of 11beta-HSD1 in male C57BL/6 mouse liver assessed as conversion of cortisone to cortisol at 30 mg/kg, po after 6 hrs by enzyme immunoassay; format: functional; conditions: C57BL/6, Liver
[4] = biological target: 11-beta-hydroxysteroid dehydrogenase 1 (Mus musculus, UniProt P50172); assay: Inhibition of mouse 11beta-HSD1 using microsomal fraction and NADPH assessed as conversion of cortisone to cortisol by biochemical enzyme assay
[5] = biological target: T1, 11-beta-hydroxysteroid dehydrogenase type 2 (Homo sapiens, UniProt P80365); assay: Inhibition of human 11beta-HSD2 using microsomal fraction and NADPH assessed as conversion of cortisone to cortisol by biochemical enzyme assay
T1 sequence (P80365 whole entry): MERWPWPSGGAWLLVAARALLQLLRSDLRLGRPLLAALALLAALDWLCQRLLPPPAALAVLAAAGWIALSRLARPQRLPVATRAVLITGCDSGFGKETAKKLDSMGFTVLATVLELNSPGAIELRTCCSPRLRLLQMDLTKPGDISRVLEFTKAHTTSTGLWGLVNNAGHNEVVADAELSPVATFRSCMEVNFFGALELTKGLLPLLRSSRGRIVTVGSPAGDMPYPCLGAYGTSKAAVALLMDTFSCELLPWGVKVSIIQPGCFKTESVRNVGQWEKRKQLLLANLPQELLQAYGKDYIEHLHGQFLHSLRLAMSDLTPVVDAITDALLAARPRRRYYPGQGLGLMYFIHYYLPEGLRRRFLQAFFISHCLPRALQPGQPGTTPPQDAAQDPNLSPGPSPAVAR

[6] = biological target: T2, 11-beta-hydroxysteroid dehydrogenase 1 (Homo sapiens, UniProt P28845); assay: Inhibition of human 11beta-HSD1 using microsomal fraction and NADPH assessed as conversion of cortisone to cortisol by biochemical enzyme assay
[7] = system: Mus musculus; assay: Ex vivo inhibition of 11beta-HSD1 in male C57BL/6 mouse epididymal fat assessed as conversion of cortisone to cortisol at 30 mg/kg, po after 6 hrs by enzyme immunoassay; format: functional; conditions: C57BL/6, 6 h
[8] = Clearance in mouse at 5 mg/kg, iv; format: ADME, organism-based; parameters: dose 5 mg/kg, route intravenous; conditions: in vivo
[9] = system: Mus musculus; assay: Ex vivo inhibition of 11beta-HSD1 in male C57BL/6 mouse liver assessed as conversion of cortisone to cortisol at 30 mg/kg, po after 2 hrs by enzyme immunoassay; format: functional; conditions: C57BL/6, Liver
[10] = system: Mus musculus; assay: Ex vivo inhibition of 11beta-HSD1 in male C57BL/6 mouse epididymal fat assessed as conversion of cortisone to cortisol at 30 mg/kg, po after 2 hrs by enzyme immunoassay; format: functional; conditions: C57BL/6, 2 h
[11] = biological target: T2, 11-beta-hydroxysteroid dehydrogenase 1; assay: Inhibition of human 11beta-HSD1 expressed in HEK293 cells using NADPH assessed as conversion of cortisone to cortisol by cell-based assay
[12] = system: Mus musculus; assay: Toxicity in ob/ob type 2 diabetic mouse model assessed as body weight at 10 mg/kg, po once daily after 10 days relative to vehicle treated control; format: organism-based; parameters: dose 10 mg/kg, route oral; conditions: in vivo, 240 h
[13] = system: Mus musculus; assay: Toxicity in ob/ob type 2 diabetic mouse model assessed as HDL cholesterol at 10 mg/kg, po once daily after 10 days relative to vehicle treated control; format: organism-based; parameters: dose 10 mg/kg, route oral; conditions: in vivo, 240 h
[14] = system: Mus musculus; assay: Toxicity in ob/ob type 2 diabetic mouse model assessed as food intake at 10 mg/kg, po once daily after 10 days relative to vehicle treated control; format: organism-based; parameters: dose 10 mg/kg, route oral; conditions: in vivo, 240 h
[15] = system: Mus musculus; assay: Reduction in non-fasting blood glucose level in ob/ob type 2 diabetic mouse model at 10 mg/kg, po once daily after 10 days relative to vehicle treated control; format: functional; conditions: 240 h
[16] = system: Mus musculus; assay: Reduction in triglyceride level in ob/ob type 2 diabetic mouse model at 10 mg/kg, po once daily after 10 days relative to vehicle treated control; format: functional, organism-based; parameters: dose 10 mg/kg
[17] = system: Mus musculus; assay: Reduction in LDL cholesterol level in ob/ob type 2 diabetic mouse model at 10 mg/kg, po once daily after 10 days relative to vehicle treated control; format: functional, organism-based; parameters: dose 10 mg/kg

Sequence of 11-beta-hydroxysteroid dehydrogenase 1 (Mus musculus, UniProt P50172) (P50172 whole entry): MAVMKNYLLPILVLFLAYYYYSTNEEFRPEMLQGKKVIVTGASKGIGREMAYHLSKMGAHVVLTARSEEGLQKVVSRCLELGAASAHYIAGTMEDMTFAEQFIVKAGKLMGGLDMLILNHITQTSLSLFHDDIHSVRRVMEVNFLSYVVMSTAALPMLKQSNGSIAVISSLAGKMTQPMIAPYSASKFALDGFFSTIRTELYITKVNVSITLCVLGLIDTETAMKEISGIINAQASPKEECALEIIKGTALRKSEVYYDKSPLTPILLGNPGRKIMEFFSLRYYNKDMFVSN
T2 sequence (P28845 whole entry): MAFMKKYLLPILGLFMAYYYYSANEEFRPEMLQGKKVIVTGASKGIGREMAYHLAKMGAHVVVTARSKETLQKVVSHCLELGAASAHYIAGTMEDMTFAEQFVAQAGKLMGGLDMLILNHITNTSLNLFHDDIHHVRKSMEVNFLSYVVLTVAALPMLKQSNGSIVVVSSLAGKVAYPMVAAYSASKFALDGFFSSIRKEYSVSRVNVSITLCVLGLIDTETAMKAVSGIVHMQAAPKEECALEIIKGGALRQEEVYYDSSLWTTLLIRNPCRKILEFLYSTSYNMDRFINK

Cc1ccc(N2CCN(c3cccc(C(=O)N[C@H]4C5CC6CC4C[C@](O)(C6)C5)n3)CC2)cc1
remaining at 0.5 h [1]: 74%

NC(=O)c1ccc(N2CCN(c3cccc(C(=O)N[C@H]4C5CC6CC4C[C@](O)(C6)C5)n3)CC2)cc1F
remaining at 0.5 h [1]: 28%

N#Cc1ccc(N2CCC(c3cccc(C(=O)N[C@H]4C5CC6CC4C[C@](O)(C6)C5)n3)CC2)nc1
remaining at 0.5 h [1]: 52%

NC(=O)c1ccc(N2CCN(c3cccc(C(=O)N[C@H]4C5CC6CC4C[C@](O)(C6)C5)n3)CC2)c(Cl)c1
remaining at 0.5 h [1]: 32%

CNC(=O)c1ccc(N2CCN(c3cccc(C(=O)N[C@H]4C5CC6CC4C[C@](O)(C6)C5)n3)[C@H](C)C2)cc1
remaining at 0.5 h [1]: 61%

O=C(N[C@H]1C2CC3CC1C[C@](O)(C3)C2)c1cccc(N2CCN(c3ccc(F)cc3)CC2)n1
remaining at 0.5 h [1]: 73%

O=C(N[C@H]1C2CC3CC1C[C@](O)(C3)C2)c1cccc(N2CCN(c3ccc(Cl)cc3)CC2)n1
remaining at 0.5 h [1]: 69%

Nc1ccc(N2CCN(c3cccc(C(=O)N[C@H]4C5CC6CC4C[C@](O)(C6)C5)n3)CC2)cc1
remaining at 0.5 h [1]: 97%

C[C@@H]1CN(c2ccc(C(N)=O)cc2)CCN1c1cccc(C(=O)N[C@H]2C3CC4CC2C[C@](O)(C4)C3)n1
remaining at 0.5 h [1]: 57%

N#Cc1ccc(C2CCN(c3cccc(C(=O)N[C@H]4C5CC6CC4C[C@](O)(C6)C5)n3)CC2)cc1
remaining at 0.5 h [1]: 46%

CS(=O)(=O)c1ccc(N2CCN(c3cccc(C(=O)N[C@H]4C5CC6CC4C[C@](O)(C6)C5)n3)CC2)cc1
bioavailability [2]: 17%
inhibition in vivo at 30 mg/kg [3]: 15%
IC50 [4]: 2.5 nM
IC50 [5]: > 10000 nM
IC50 [6]: 1.6 nM
inhibition in vivo at 30 mg/kg [7]: 22%
clearance [8]: 29.7 mL/min/kg
inhibition in vivo at 30 mg/kg [9]: 53%
inhibition in vivo at 30 mg/kg [10]: 70%
IC50 [11]: 3.9 nM
remaining at 0.5 h [1]: 87%

COc1ccc(N2CCN(c3cccc(C(=O)N[C@H]4C5CC6CC4C[C@](O)(C6)C5)n3)CC2)cc1
remaining at 0.5 h [1]: 86%

COc1ccc(N2CCN(c3cccc(C(=O)N[C@H]4C5CC6CC4C[C@](O)(C6)C5)n3)[C@H](C)C2)cc1
remaining at 0.5 h [1]: 80%

N#Cc1ccc(C2CCN(c3cccc(C(=O)N[C@H]4C5CC6CC4C[C@](O)(C6)C5)n3)CC2)nc1
remaining at 0.5 h [1]: 63%

C[C@@H]1CN(c2ccc(C#N)cc2)CCN1c1cccc(C(=O)N[C@H]2C3CC4CC2C[C@](O)(C4)C3)n1
remaining at 0.5 h [1]: 84%

C[C@@H]1CN(c2ccc(C(C)(C)O)cc2)CCN1c1cccc(C(=O)N[C@H]2C3CC4CC2C[C@](O)(C4)C3)n1
bioavailability [2]: 32%
inhibition in vivo at 30 mg/kg [3]: 58%
IC50 [4]: 6.6 nM
IC50 [5]: > 10000 nM
IC50 [6]: 4.1 nM
inhibition in vivo at 30 mg/kg [7]: 77%
clearance [8]: 7.67 mL/min/kg
inhibition in vivo at 30 mg/kg [9]: 73%
inhibition in vivo at 30 mg/kg [10]: 94%
IC50 [11]: 4.9 nM
remaining at 0.5 h [1]: 84%

N#Cc1ccc(N2CCC(c3cccc(C(=O)N[C@H]4C5CC6CC4C[C@](O)(C6)C5)n3)CC2)cc1
remaining at 0.5 h [1]: 58%

O=C(N[C@H]1C2CC3CC1C[C@](O)(C3)C2)c1cccc(N2CCN(c3ccc(C(F)(F)F)cc3)CC2)n1
remaining at 0.5 h [1]: 79%

COc1ccc(N2CCN(c3cccc(C(=O)N[C@H]4C5CC6CC4C[C@](O)(C6)C5)n3)[C@@H](C)C2)cc1
remaining at 0.5 h [1]: 77%

O=C(N[C@H]1C2CC3CC1C[C@](O)(C3)C2)c1cccc(N2CCN(c3ccc([N+](=O)[O-])cc3)CC2)n1
remaining at 0.5 h [1]: 74%

C[C@H]1CN(c2ccc(S(C)(=O)=O)cc2)CCN1c1cccc(C(=O)N[C@H]2C3CC4CC2C[C@](O)(C4)C3)n1
IC50 [6]: 4.2 nM
IC50 [11]: 6.8 nM
remaining at 0.5 h [1]: 88%

C[C@H]1CN(c2ccc(C#N)cc2)CCN1c1cccc(C(=O)N[C@H]2C3CC4CC2C[C@](O)(C4)C3)n1
remaining at 0.5 h [1]: 82%

N#Cc1ccc(N2CCN(c3cccc(C(=O)N[C@H]4C5CC6CC4C[C@](O)(C6)C5)n3)CC2)cc1F
remaining at 0.5 h [1]: 79%

N#Cc1ccc(N2CCN(c3cccc(C(=O)N[C@H]4C5CC6CC4C[C@](O)(C6)C5)n3)CC2)c(Cl)c1
remaining at 0.5 h [1]: 88%

N#Cc1ccc(N2CCN(c3cccc(C(=O)N[C@H]4C5CC6CC4C[C@](O)(C6)C5)n3)CC2)cc1
bioavailability [2]: 5%
inhibition in vivo at 30 mg/kg [3]: < 10%
inhibition in vivo at 30 mg/kg [7]: < 10%

C[C@@H]1CN(c2ccc(S(C)(=O)=O)cc2)CCN1c1cccc(C(=O)N[C@H]2C3CC4CC2C[C@](O)(C4)C3)n1
bioavailability [2]: 41%
Activity [12]: Non-toxic
inhibition in vivo at 30 mg/kg [3]: 77%
Activity [13]: Non-toxic
IC50 [4]: 1.8 nM
IC50 [5]: > 10000 nM
IC50 [6]: 2.2 nM
inhibition in vivo at 30 mg/kg [7]: 86%
clearance [8]: 14.2 mL/min/kg
Activity [14]: Non-toxic
inhibition in vivo at 10 mg/kg [15]: 41%
inhibition [16]: Active
inhibition [17]: Active
inhibition in vivo at 30 mg/kg [9]: 85%
inhibition in vivo at 30 mg/kg [10]: 95%
IC50 [11]: 3.1 nM
remaining at 0.5 h [1]: 97%

NC(=O)c1ccc(N2CCN(c3cccc(C(=O)N[C@H]4C5CC6CC4C[C@](O)(C6)C5)n3)CC2)cc1
remaining at 0.5 h [1]: 65%

N#Cc1ccc(N2CCN(c3cccc(C(=O)N[C@H]4C5CC6CC4C[C@](O)(C6)C5)n3)CC2)nc1
remaining at 0.5 h [1]: 81%
